{"source": "patent US20130274651A1", "about": "“SYSTEM AND METHOD FOR IMPROVING OUTCOME OF CEREBRAL ISCHEMIA” (priority 2012, published 2013)", "key": {"[1]": {"experiment": "Carotid artery occlusion model, Speckle laser Doppler, intubated rodents", "assay_type": "in vivo", "method": "(§1) In intubated rodents, the inventors have shown that cerebral blood flow increases by 100% within 60 minutes of intranasal nitric oxide delivery.\nIncrease in cerebral blood flow is attributable to focal intranasal or intra-oral effect of nitric oxide rather than to systemic absorption of the gas. […] The effect on cerebral blood flow during intranasal delivery of nitric oxide with concomitant air inhalation into the lungs is therefore a focal effect on intranasal and intracranial vasculature attributable specifically to nitric oxide. […] In a non-intubated patient, nitric oxide inhalation can be prevented by occluding the nasal cavity anterior or posterior to the site of gas delivery. This is achieved by means of an anterior occlusion device such a rigid member, an expandable member, a compressible member, a sponge, a porous member, a plug, a balloon, foam and/or combinations of the foregoing, which prevent inhalation through the nostrils while maintaining a high concentration of nitric oxide in the nasal cavity. A non-intubated patient may be allowed to inhale air into the lungs during nitric oxide delivery into the nasal cavity by an optional central lumen with the distal orifice beyond the sites of nasal gas delivery and occlusion device."}, "[2]": {"experiment": "CT perfusion scanning in intubated patients with cerebral ischemia treated with intranasal non-inhaled nitric oxide", "assay_type": "in vivo, human"}, "[3]": {"experiment": "Tolerability of intranasal delivery in humans (normal volunteers)", "assay_type": "in vivo, human", "conditions": "high concentration", "description": "While nitric oxide may be given intranasally and without inhalation into the lungs to intubated, comatose individuals the tolerability of intranasal nitric oxide in awake humans has not previously been investigated. The inventors have tested the effect of nitric oxide in humans (normal volunteers) during intranasal delivery. […] Therefore it can easily be tolerated by awake, non-intubated patients."}, "[4]": {"experiment": "Cerebral blood flow by cortical laser Doppler during intranasal nitric oxide in intubated rodents", "assay_type": "in vivo", "method": "as §1"}}, "note": "“Also recorded” adds a separate entry of the source.", "data": [{"compound": "[N]=O", "note": "[nitric oxide]", "values": [{"measurement": "perfusion in the ischemic hemisphere", "setting": "[1]; during carotid occlusion and following ligature release", "value": "perfusion is improved in the ischemic hemisphere"}, {"measurement": "cerebral ischemia (FIG. 9)", "setting": "[1]; intubated rodents, Speckle laser Doppler tracing", "value": "reduction of cerebral ischemia"}, {"measurement": "Cerebral Blood Flow, Changes in ACA Watershed", "setting": "[2]; Post Rx", "value": "Normalization,"}, {"measurement": "Mean Transit Time, Changes in ACA Watershed", "setting": "[2]; Post Rx", "value": "Normalization"}, {"measurement": "Mean Transit Time, Left Hemisphere (ischemic)", "setting": "[2]; Post Rx", "value": 6.0, "unit": "s"}, {"measurement": "Mean Transit Time, Right Hemisphere (normal)", "setting": "[2]; Post Rx", "value": 6.1, "unit": "s"}, {"measurement": "Cerebral Blood Flow, increase in perfusion on L (ACA Watershed)", "setting": "[2]; Post Rx vs Pre Rx, left ischemic hemisphere", "value": 67, "unit": "% increase in"}, {"measurement": "cerebral perfusion, CT perfusion scanning", "setting": "[2]; intubated patients / human with focal cerebral ischemia, before vs after treatment", "value": "improvement in cerebral perfusion; also recorded: augmentation of cerebral perfusion and normalization of regional perfusion abnormalities"}, {"measurement": "tolerability of intranasal delivery without inhalation", "setting": "[3]", "value": "tolerated at high concentration"}, {"measurement": "cerebral blood flow change (FIG. 8)", "setting": "[4]; cortical laser Doppler, during intranasal administration", "value": "doubling of cerebral blood flow"}, {"measurement": "cerebral blood flow increase", "setting": "[4]; within 60 minutes of intranasal delivery", "value": 100, "unit": "%"}]}]}
